Measurements taken from patent US20240350446A1, “CAROTENOID SOLUTIONS AND USES THEREOF” (L.E.A.F. HOLDINGS GROUP LLC, priority 2020, published 2024).

Assays:
[1] = Solubility of TSC in aqueous PEG400/NaCl/sucrose formulations; type: physicochemical
Method: (§1) 1650 grams of sucrose was added to 51.59 Kg of WFI with mixing in a Nalgene tank containing a tank liner. 2475 grams of PEG400 was then added to the tank with mixing. After the sucrose and PEG400 were completely dissolved, 110 grams of TSC was added and the solution was mixed at room temperature for a minimum of 30 minutes or until the solution was clear. The solution was then filtered through a 0.45 μm glass fiber prefilter+0.2 μm sterile filter at a pump speed of 700 mL/min into a 100 L Biobag. A sample of the filtrate was pulled from the Biobag solution for a bioburden test. The Biobag was stored at 2-8° C. for at least 12 hours and then brought to room temperature and sterile filtered through 0.45 μm glass fiber prefilter+0.2 μm sterile filter at a pump speed of 700 mL/min to a 100 L Biobag. The sterile filtrate was then filled into amber 10R vials with a target 10.5 ml fill volume.
Other exemplary TSC aqueous solutions were formulated with varying concentrations of PEG400, NaCl, sucrose and TSC concentrations.
(§2) All formulations could be carried out at room temperature with mixing. The dissolution of TSC was generally completed within 10 minutes. […] The solution pH is around 8.7 and no further pH adjustment was needed. The final formulation has an osmolality around 270 mOsm.

[2] = Properties of TSC aqueous formulation (dissolution, crash-out on dilution/storage, pH, osmolality); type: physicochemical
Method: as §1, §2

CC(/C=C/C=C(\C)C(=O)[O-])=C\C=C\C=C(C)\C=C\C=C(/C)C(=O)[O-].[Na+].[Na+] [TSC, trans sodium crocetinate]
Observation (solubility) ([1]; PEG400 2% (v/v), NaCl 0%, sucrose 0%, TSC 2 mg/mL): soluble | Observation (solubility) ([1]; PEG400 4% (v/v), NaCl 0%, sucrose 0%, TSC 4 mg/mL): soluble | Observation (solubility) ([1]; PEG400 4% (v/v), NaCl 0%, sucrose 3% (w/v), TSC 2 mg/mL): soluble | Observation (solubility) ([1]; PEG400 4% (v/v), NaCl 0.9% (w/w), sucrose 0%, TSC 2 mg/mL (first of two identical lines)): partially soluble | Observation (solubility) ([1]; PEG400 4% (v/v), NaCl 0.9% (w/w), sucrose 0%, TSC 2 mg/mL (second of two identical lines)): soluble | Observation (solubility) ([1]; PEG400 4% (v/v), NaCl 0.9% (w/w), sucrose 0%, TSC 4 mg/mL): partially soluble | Observation (solubility) ([1]; PEG400 6% (v/v), NaCl 0%, sucrose 0%, TSC 4 mg/mL): soluble | Observation (solubility) ([1]; PEG400 8% (v/v), NaCl 0%, sucrose 0%, TSC 8 mg/mL): saturated with some | Observation (solubility) ([1]; PEG400 80% (v/v), NaCl 0% (w/w), sucrose 0% (w/v), TSC 20 mg/mL): soluble | dissolution of TSC, time to completion ([2]; all formulations, room temperature with mixing): ≤ 10 min | TSC crash out of solution after storage ([2]; storage at 2-8° C.): No TSC was observed to crash out | TSC crash out of the solution upon dilution ([2]; ten times dilution in 0.9% saline, 2 mg/mL formulation): No TSC was observed to crash out
